From patent publication US20210267944A1 (BioXcel Therapeutics, Inc., priority 2018, published 2021)
Structures can show the parent of a compound that is named as a salt. Where two headings read alike, the source gives them in different places.

Conditions: opioid withdrawal patients
Source text: The participants were continuously monitored by the site personnel, including blood pressure and heart rate, from the start of the infusion through resolution of sedation and/or any adverse effects on blood pressure or heart rate. An electrocardiogram was obtained at screening, pre-infusion and upon resolution of sedation, a predetermined reduction in COWS or return to baseline.

In the case of `Cc1cccc([C@H](C)c2cnc[nH]2)c1C` [dexmedetomidine hydrochloride], the “Diastolic blood pressure Max” value (Day-1, 00:00 Hr) was 110 mm of Hg, the “Diastolic blood pressure Mean ± SD” value (Day-1, 00:00 Hr) was 83.81 ± 12.99 mm of Hg and the “Diastolic blood pressure Median” value (Day-1, 00:00 Hr) was 82 mm of Hg. The “Diastolic blood pressure Min” value (Day-1, 00:00 Hr) was 64 mm of Hg, the “Heart rate Max” value (Day-1, 00:00 Hr) was 106 beats/minutes and the “Heart rate Mean ± SD” value (Day-1, 00:00 Hr) was 69.9 ± 16.37 beats/minutes. For the same molecule, the “Heart rate Median” value (Day-1, 00:00 Hr) was 66 beats/minutes, the “Heart rate Min” value (Day-1, 00:00 Hr) was 55 beats/minutes and the “Diastolic blood pressure Max” value (Day-1, 00:15 Hr) was 96 mm of Hg. The “Diastolic blood pressure Mean ± SD” value (Day-1, 00:15 Hr) was 78.09 ± 9.99 mm of Hg, the “Diastolic blood pressure Median” value (Day-1, 00:15 Hr) was 76 mm of Hg and the “Diastolic blood pressure Min” value (Day-1, 00:15 Hr) was 62 mm of Hg. For the same molecule, the “Heart rate Max” value (Day-1, 00:15 Hr) was 86 beats/minutes, the “Heart rate Mean ± SD” value (Day-1, 00:15 Hr) was 66.36 ± 11.9 beats/minutes and the “Heart rate Median” value (Day-1, 00:15 Hr) was 67 beats/minutes. The “Heart rate Min” value (Day-1, 00:15 Hr) was 49 beats/minutes, the “Diastolic blood pressure Max” value (Day-1, 00:30 Hr) was 86 mm of Hg and the “Diastolic blood pressure Mean ± SD” value (Day-1, 00:30 Hr) was 70 ± 8.8 mm of Hg. For the same molecule, the “Diastolic blood pressure Median” value (Day-1, 00:30 Hr) was 68 mm of Hg, the “Diastolic blood pressure Min” value (Day-1, 00:30 Hr) was 59 mm of Hg and the “Heart rate Max” value (Day-1, 00:30 Hr) was 84 beats/minutes. For the same molecule, the “Heart rate Mean ± SD” value (Day-1, 00:30 Hr) was 66.88 ± 12.26 beats/minutes, the “Heart rate Median” value (Day-1, 00:30 Hr) was 70 beats/minutes and the “Heart rate Min” value (Day-1, 00:30 Hr) was 52 beats/minutes. The “Diastolic blood pressure Max” value (Day-1, 00:45 Hr) was 86 mm of Hg, the “Diastolic blood pressure Mean ± SD” value (Day-1, 00:45 Hr) was 74.5 ± 7.67 mm of Hg and the “Diastolic blood pressure Median” value (Day-1, 00:45 Hr) was 76 mm of Hg. The “Diastolic blood pressure Min” value (Day-1, 00:45 Hr) was 61 mm of Hg, the “Heart rate Max” value (Day-1, 00:45 Hr) was 89 beats/minutes and the “Heart rate Mean ± SD” value (Day-1, 00:45 Hr) was 68.83 ± 14.91 beats/minutes. The “Heart rate Median” value (Day-1, 00:45 Hr) was 66 beats/minutes, the “Heart rate Min” value (Day-1, 00:45 Hr) was 50 beats/minutes and the “Diastolic blood pressure Max” value (Day-1, 01:00 Hr) was 77 mm of Hg. The “Diastolic blood pressure Mean ± SD” value (Day-1, 01:00 Hr) was 71.4 ± 6.05 mm of Hg, the “Diastolic blood pressure Median” value (Day-1, 01:00 Hr) was 72 mm of Hg and the “Diastolic blood pressure Min” value (Day-1, 01:00 Hr) was 60 mm of Hg. For the same molecule, the “Heart rate Max” value (Day-1, 01:00 Hr) was 85 beats/minutes, the “Heart rate Mean ± SD” value (Day-1, 01:00 Hr) was 69.6 ± 11.35 beats/minutes and the “Heart rate Median” value (Day-1, 01:00 Hr) was 66 beats/minutes. The “Heart rate Min” value (Day-1, 01:00 Hr) was 54 beats/minutes, the “Diastolic blood pressure Max” value (Day-1, 01:15 Hr) was 82 mm of Hg and the “Diastolic blood pressure Mean ± SD” value (Day-1, 01:15 Hr) was 72 ± 8.16 mm of Hg. The “Diastolic blood pressure Median” value (Day-1, 01:15 Hr) was 72 mm of Hg, the “Diastolic blood pressure Min” value (Day-1, 01:15 Hr) was 62 mm of Hg and the “Heart rate Max” value (Day-1, 01:15 Hr) was 76 beats/minutes. The “Heart rate Mean ± SD” value (Day-1, 01:15 Hr) was 72 ± 2.82 beats/minutes, the “Heart rate Median” value (Day-1, 01:15 Hr) was 70 beats/minutes and the “Heart rate Min” value (Day-1, 01:15 Hr) was 70 beats/minutes. For the same molecule, the “Diastolic blood pressure Max” value (Day-1, 01:30 Hr) was 66 mm of Hg, the “Diastolic blood pressure Mean ± SD” value (Day-1, 01:30 Hr) was 61 ± 5 mm of Hg and the “Diastolic blood pressure Median” value (Day-1, 01:30 Hr) was 61 mm of Hg. The “Diastolic blood pressure Min” value (Day-1, 01:30 Hr) was 56 mm of Hg, the “Heart rate Max” value (Day-1, 01:30 Hr) was 61 beats/minutes and the “Heart rate Mean ± SD” value (Day-1, 01:30 Hr) was 60.5 ± 0.5 beats/minutes. For the same molecule, the “Heart rate Median” value (Day-1, 01:30 Hr) was 60.5 beats/minutes, the “Heart rate Min” value (Day-1, 01:30 Hr) was 60 beats/minutes and the “Diastolic blood pressure Max” value (Day-1, 30 min. post Infusion) was 86 mm of Hg. For the same molecule, the “Diastolic blood pressure Mean ± SD” value (Day-1, 30 min. post Infusion) was 75.27 ± 9.22 mm of Hg, the “Diastolic blood pressure Median” value (Day-1, 30 min. post Infusion) was 73 mm of Hg and the “Diastolic blood pressure Min” value (Day-1, 30 min. post Infusion) was 60 mm of Hg. The “Heart rate Max” value (Day-1, 30 min. post Infusion) was 99 beats/minutes, the “Heart rate Mean ± SD” value (Day-1, 30 min. post Infusion) was 65.18 ± 14.03 beats/minutes and the “Heart rate Median” value (Day-1, 30 min. post Infusion) was 62 beats/minutes. The “Heart rate Min” value (Day-1, 30 min. post Infusion) was 50 beats/minutes, the “Diastolic blood pressure Max” value (Day-1, Screening) was 108 mm of Hg and the “Diastolic blood pressure Mean ± SD” value (Day-1, Screening) was 84.18 ± 13.13 mm of Hg. The “Diastolic blood pressure Median” value (Day-1, Screening) was 81 mm of Hg, the “Diastolic blood pressure Min” value (Day-1, Screening) was 63 mm of Hg and the “Heart rate Max” value (Day-1, Screening) was 108 beats/minutes. For the same molecule, the “Heart rate Mean ± SD” value (Day-1, Screening) was 68.54 ± 15.32 beats/minutes, the “Heart rate Median” value (Day-1, Screening) was 66 beats/minutes and the “Heart rate Min” value (Day-1, Screening) was 55 beats/minutes. The “Diastolic blood pressure Max” value (Day-2, 00:00 Hr) was 88 mm of Hg, the “Diastolic blood pressure Mean ± SD” value (Day-2, 00:00 Hr) was 78.4 ± 7.86 mm of Hg and the “Diastolic blood pressure Median” value (Day-2, 00:00 Hr) was 79 mm of Hg. The “Diastolic blood pressure Min” value (Day-2, 00:00 Hr) was 69 mm of Hg, the “Heart rate Max” value (Day-2, 00:00 Hr) was 94 beats/minutes and the “Heart rate Mean ± SD” value (Day-2, 00:00 Hr) was 68.8 ± 13.94 beats/minutes. For the same molecule, the “Heart rate Median” value (Day-2, 00:00 Hr) was 63 beats/minutes, the “Heart rate Min” value (Day-2, 00:00 Hr) was 55 beats/minutes and the “Diastolic blood pressure Max” value (Day-2, 00:15 Hr) was 90 mm of Hg. For the same molecule, the “Diastolic blood pressure Mean ± SD” value (Day-2, 00:15 Hr) was 77.4 ± 9.91 mm of Hg, the “Diastolic blood pressure Median” value (Day-2, 00:15 Hr) was 76 mm of Hg and the “Diastolic blood pressure Min” value (Day-2, 00:15 Hr) was 62 mm of Hg. The “Heart rate Max” value (Day-2, 00:15 Hr) was 85 beats/minutes, the “Heart rate Mean ± SD” value (Day-2, 00:15 Hr) was 67.4 ± 12.35 beats/minutes and the “Heart rate Median” value (Day-2, 00:15 Hr) was 61 beats/minutes. For the same molecule, the “Heart rate Min” value (Day-2, 00:15 Hr) was 53 beats/minutes, the “Diastolic blood pressure Max” value (Day-2, 00:30 Hr) was 84 mm of Hg and the “Diastolic blood pressure Mean ± SD” value (Day-2, 00:30 Hr) was 73.4 ± 8.54 mm of Hg. The “Diastolic blood pressure Median” value (Day-2, 00:30 Hr) was 71 mm of Hg, the “Diastolic blood pressure Min” value (Day-2, 00:30 Hr) was 61 mm of Hg and the “Heart rate Max” value (Day-2, 00:30 Hr) was 93 beats/minutes. For the same molecule, the “Heart rate Mean ± SD” value (Day-2, 00:30 Hr) was 68.2 ± 5.54 beats/minutes, the “Heart rate Median” value (Day-2, 00:30 Hr) was 58 beats/minutes and the “Heart rate Min” value (Day-2, 00:30 Hr) was 54 beats/minutes. The “Diastolic blood pressure Max” value (Day-2, 00:45 Hr) was 86 mm of Hg, the “Diastolic blood pressure Mean ± SD” value (Day-2, 00:45 Hr) was 79 ± 7.68 mm of Hg and the “Diastolic blood pressure Median” value (Day-2, 00:45 Hr) was 82 mm of Hg. The “Diastolic blood pressure Min” value (Day-2, 00:45 Hr) was 66 mm of Hg, the “Heart rate Max” value (Day-2, 00:45 Hr) was 97 beats/minutes and the “Heart rate Mean ± SD” value (Day-2, 00:45 Hr) was 69 ± 16.80 beats/minutes. For the same molecule, the “Heart rate Median” value (Day-2, 00:45 Hr) was 63 beats/minutes, the “Heart rate Min” value (Day-2, 00:45 Hr) was 53 beats/minutes and the “Diastolic blood pressure Max” value (Day-2, 01:00 Hr) was 87 mm of Hg. The “Diastolic blood pressure Mean ± SD” value (Day-2, 01:00 Hr) was 79.33 ± 7.58 mm of Hg, the “Diastolic blood pressure Median” value (Day-2, 01:00 Hr) was 82 mm of Hg and the “Diastolic blood pressure Min” value (Day-2, 01:00 Hr) was 69 mm of Hg. For the same molecule, the “Heart rate Max” value (Day-2, 01:00 Hr) was 94 beats/minutes, the “Heart rate Mean ± SD” value (Day-2, 01:00 Hr) was 72.66 ± 17.15 beats/minutes and the “Heart rate Median” value (Day-2, 01:00 Hr) was 72 beats/minutes. The “Heart rate Min” value (Day-2, 01:00 Hr) was 52 beats/minutes and the “Diastolic blood pressure Max” value (Day-2, 01:15 Hr) was 101 mm of Hg.
